Source: patent US20200038306A1, “[…] DERIVATIVES AS SELF-TANNING SUBSTANCES” (Merck Patent GmbH, priority 2016, published 2020)

What was measured:
[1] = system: Normal Human Epidermal Keratinocytes (NHEK) and Normal Human Epidermal Melanocytes, Lightly Pigmented (NHEM-LP) co-culture; assay: Synthesis of melanin in NHEK/NHEM-LP co-culture; format: cell-based; settings: 240 hours (10 days) incubation, melanin extracted with 0.5 N NaOH, OD 405 nm, triple determination
Method: Evaluation of the Synthesis of Melanin in a Cell Culture Model Containing Two Cell Types (Co-Culture), Firstly Normal Human Epidermal Keratinocytes (NHEK) and Secondly Normal Human Epidermal Melanocytes, Lightly Pigmented (NHEM-LP)
The two cell types NHEK and NHEM-LP (NHEK:NHEM-LP) are employed in a ratio of 2:1.
The culture medium consists of the media keratinocyte-SFM (2 parts by volume) and medium M254 (1 part by volume).
Keratinocyte-SFM contains 0.25 ng/ml of epidermal growth factor (EGF), 25 μg/ml of pituitary extract (PE) and 25 μg/ml of gentamycin and was purchased from Thermo Fisher Scientific.
M254 contains PMA-free HMGS-2, 5 μg/ml of insulin, 50 U/ml of penicillin, 50 μg/ml of streptomycin and 25 μg/ml of gentamycin and was purchased from Thermo Fisher Scientific.
IBMX denotes the compound 3-isobutyl-1-methylxanthine.
Cell Culture and Treatment
NHEK and NHEM-LP were incubated in the culture medium in microtitre plates (24-well plates) for 24 hours (37° C., 5% CO2). The culture medium was removed and replaced by an assay medium which contained the culture medium and compounds Ib and Id to be tested or alternatively no test substance, the reference L-tyrosine (1 mM), 200 μM of IBMX or the solvent control 0.1% of THF, 0.15% of THF, 0.1% of DMSO, 0.15% of DMSO, 0.17% of DMSO. Compound Ib was added as solution (0.15% in DMSO). Compound Id was added as solution (0.15% in THF). After replacement of the assay medium, the cells were incubated again for 240 hours (10 days). On days 3 and 7, assay medium was again added. All experimental investigations were carried out using a triple determination. After the end of the incubation, the melanin was extracted by cell lysis with 0.5 N NaOH. The optical density (OD) of each sample was measured at 405 nm. The melanin quantity was calculated from melanin standards (standard curve 0.39 to 100 μg/ml of melanin).

[2] = system: 3D melanized reconstructed human epidermis (RHEs-MEL); assay: Tanning properties in vitro on reconstructed epidermis; format: cell-based; settings: systemic treatment in culture medium for 10 days, positive control IBMX 100 μM
Method: Evaluation of the Tanning Properties In Vitro on Reconstructed Epidermis
In this study, the tanning properties of compound Id are investigated in vitro on 3D melanized reconstructed human epidermis (RHEs-MEL). The compound IBMX (3-isobutyl-1-methylxanthine) 100 μM is employed as positive control. Compound Id is employed 20 μM and […]. Untreated reconstructed skin is used as negative control. The in vitro skin is treated systemically with the compounds to be investigated in a culture medium for 10 days and then analysed.

SMILES | stimulation of melanin synthesis ([1]; 45 μM) [%] | tanning properties (reduction of the ITA value and visual colour difference) compared with IBMX ([2]; 20 μM) | tanning properties (reduction of the ITA value and visual colour difference) compared with IBMX [2] | stimulation of melanin synthesis ([1]; 20 μM) [%]
COc1ccc(CC2C(=O)NC(=O)NC2=O)cc1 [Compound Ib, 5-(4-methoxybenzyl)pyrimidine-2,4,6-trione] | 20 | – | – | –
CCCCN1C(=O)NC(=O)C(Cc2ccccc2)C1=O (centres unmarked) [Compound Id, 5-benzyl-1-butylpyrimidine-2,4,6-trione] | 25 | comparably good properties as IBMX at 100 μM | comparably good properties as IBMX at 100 μM | 17
